Laboratory results from patent publication US20190015400A1, “Antifungal Compositions” (priority 2017, published 2019).

What was measured:
[1] = system: C. glabrata ATCC 2001 (strain H); assay: Time-kill assay, POS and EBA; assay type: cell-based, Candida glabrata; conditions: POS + EBA combination at 1×MIC
Method: (§1) The protocol for time-kill assays followed methods previously described with minor modifications. Yeast cultures were grown overnight in YEPD medium at 35° C. with shaking at 200 rpm. A working stock of fungal cells was made by diluting cultures in 1640 medium to an OD600 of 0.125 (˜1×10^6 CFU/mL). From the working stock, 100 μL of cells was added to 4.9 mL of RPMI 1640 medium in sterile culture tubes, making the starting fungal cell concentration ˜1×10^5 CFU/mL. Drug was then added to the fungal cells. […] Treated fungal cultures were incubated in the culture tubes at 35° C. with 200 rpm shaking for 24 h. Samples were aliquoted from the different treatments at regular time points (0, 3, 6, 9, 12, and 24 h) and plated in duplicate. For each time point, cultures were vortexed, 100 μL of culture was aspirated, and 10-fold serial dilutions were made in sterile ddH2O. From the appropriate dilutions, 100 μL of fungal suspension was spread on PDA plates and incubated at 35° C. for 48 h before colony counts were determined. At 24 h, 50 μL of 1 mM resazurin in phosphate buffered saline (PBS) was added to the treatments and incubated at 35° C. with 200 rpm shaking for 2 h in the dark for visual inspection. […] Experiments were performed in duplicate.

[2] = system: C. glabrata ATCC 2001 (strain H); assay: MIC and checkerboard assay, azoles + antihistamines; assay type: cell-based, Candida glabrata; conditions: in combination with POS
Method: Determination of minimum inhibitory concentration (MIC) values. MIC values were recorded for all antifungals and antihistamines in order to determine the concentration range of compounds to be used in the checkerboard assays.
The MIC assays were done using the broth microdilution method as described in CLSI document M27-A3 with minor modifications. Yeast cultures were started by picking a colony from a PDA plate stored at 4° C. The colonies were grown in YEPD medium overnight at 35° C. with shaking at 200 rpm. In a 96-well plate compounds were diluted lengthwise along the plate in serial 2-fold dilutions in the RPMI 1640 medium. The yeast cultures were diluted in RPMI 1640 medium to an OD600 within the range of 0.12 and 0.15 (˜1×10^6 cells/mL). The fungal cells were further diluted by taking 25 μL of fungal cells and adding them to 10 mL of RPMI 1640 medium before adding 100 μL to plate (200 μL total volume). The plates were incubated at 35° C. for 48 h. Visual inspection of the wells for no growth was used to determine the MIC. All compounds were tested in duplicate (TABLES 6 and 7).
Checkerboard assays were done as previously described to determine the fractional inhibitory concentration index (FICI). 2-fold dilutions of the azole drug were made in RPMI 1640 medium lengthwise along the plate. For the antihistamine, 2-fold serial dilutions were made in sterile tubes with RPMI 1640 medium, then aliquoted into the plate. […] The maximal amount was used in the checkerboard assays if complete inhibition was not observed in the MIC assays. Cultures were started by picking a colony from a plate and growing in YEPD medium overnight at 35° C. with shaking at 200 rpm. Cultures were diluted in RPMI 1640 medium to an OD600 between 0.12 and 0.15 (˜1×10^6 cells/mL). Cells were then further diluted by taking 25 μL of cell suspension and adding to 10 mL of RPMI 1640 medium. After the drugs were added to the plate with 100 μL of medium, 100 μL of fungal cells were added. Plates were incubated at 35° C. for 48 h and visual inspection was used to determine wells with no growth. All experiments were carried out in duplicate. The FICI was calculated based on the formula below. The combinational effect of the 2 tested compounds were considered synergistic (SYN) if FICI≤0.5, additive (ADD) if 0.5<FICI≤4, and antagonistic if FICI>4 (TABLES 6-9).

HEK-293 cells = assay: Mammalian cytotoxicity (resazurin cell viability), POS and EBA; assay type: cell-based, human; conditions: EBA alone at 25 μg/mL
Method: (§2) To examine whether the inhibitory effect of the antifungal and antihistamine combinations is specific to fungal cells, the combinations were tested with 4 mammalian cell lines: A459, BEAS-2B, HEK-293, and HaCaT. […] The assays were done in 96-well plates. A549 and BEAS-2B cells were plated at a density of 3×10^3 cells/mL, HaCaT were plated at 2×10^4 cells/mL, and HEK-293 cells were plated at 1×10^4 cells/mL as determined by using a hemacytometer. […] All assays were done in quadruplicate.

HaCaT cells = assay: as above; assay type: cell-based, human; conditions: EBA alone at 25 μg/mL
Method: as §2

A549 cells = assay: as above; assay type: cell-based, human; conditions: EBA alone at 25 μg/mL
Method: as §2

BEAS-2B cells = assay: as above; assay type: cell-based, human; conditions: EBA alone at 25 μg/mL
Method: as §2

[3] = system: C. albicans ATCC 10231 (strain B); assay: Time-kill assay, POS and EBA; assay type: cell-based, Candida albicans; conditions: POS + EBA combination at 1×MIC
Method: as §1

[4] = aqueous assay medium, from DMSO stock

maximal concentration where no precipitation was observed [4] [µg/mL]	Compound	CFU/mL through 24 h [1]	FICI [2]	cell survival (HEK-293 cells) [%]	cell survival (HaCaT cells) [%]	cell survival (A549 cells) [%]	cell survival (BEAS-2B cells) [%]	CFU/mL through 24 h [3]
–	CC(C)(C)c1ccc(C(=O)CCCN2CCC(OC(c3ccccc3)c3ccccc3)CC2)cc1 [EBA, ebastine]	10^6 CFU/mL	0.05	~0	~0	~0	~0	10^6 CFU/mL
42.7	CC(C)(C)c1ccc(C(O)CCCN2CCC(C(O)(c3ccccc3)c3ccccc3)CC2)cc1 (centres unmarked) [TERF, terfenadine]	–	–	–	–	–	–	–
